Measurements reported in ChEMBL document CHEMBL3632480, “Optimization of an indazole series of selective estrogen receptor degraders: Tumor regression in a tamoxifen-resistant breast cancer xenograft” (Bioorg Med Chem Lett, 2015).
Calls of active or inactive are those of the source. The rule behind the calls is not given here.

Columns and labels:
MCF7 [1] = test: Decrease in estrogen receptor alpha level in human MCF7 cells 2 to 10 uM after 4 hrs by in-cell western assay; assay type: functional; conditions: MCF7, 4 h
MCF7 [2] = test: Cytotoxicity against human MCF7 cells assessed as decrease in cell viability after 5 days by celltiterGlo assay; assay type: functional, cell-based; conditions: MCF7, 120 h
MCF7 [3] = test: Decrease in estrogen receptor alpha level in human MCF7 cells after 4 hrs by in-cell western assay; assay type: functional, cell-based; conditions: MCF7, 4 h
MCF7 [4] = test: Decrease in estrogen receptor alpha level in human MCF7 cells after 4 hrs by in-cell western assay relative to fulvestrant; assay type: functional; conditions: MCF7, 4 h
[5] = AUC in CD-1 mouse at 10 mg/kg, po; assay type: ADME, organism-based; conditions: in vivo
[6] = Fraction unbound in CD-1 mouse plasma by equilibrium dialysis; assay type: ADME, cell-free
Rattus norvegicus = test: Decrease in uterine wet weight of CD-IGS rat at 1 mg/kg, po qd followed 15 mins later administration of 0.1 mg/kg, po 17alpha-ethynylestradiol for 3 consecutive days; assay type: functional
MCF7 [7] = test: Antitumor activity against human MCF7 cells xenografted in tamoxifen-resistant nu/nu mouse model implanted with 17beta-estradiol pellets assessed as tumor regression at 30 mg/kg qd for 4 weeks; assay type: functional, organism-based

| SMILES | Emax (MCF7 [1]) | IC50 (MCF7 [2]) | EC50 (MCF7 [3]) | Emax (MCF7 [4]) | AUC [5] | fraction unbound [6] | inhibition (INH) (Rattus norvegicus) | Activity (MCF7 [7]) |
| --- | --- | --- | --- | --- | --- | --- | --- | --- |
| CC/C(=C(/c1ccc(/C=C/C(=O)O)cc1)c1cc2cn[nH]c2cc1C)c1ccccc1 | 84% | 468 nM | 272 nM | – | – | – | – | – |
| N#Cc1ccc(/C(=C(\c2ccc(/C=C/C(=O)O)cc2)c2ccc3[nH]nc(F)c3c2)C2CCC2)c(Cl)c1 | – | 0.7 nM | 0.3 nM | 93% | 7800 ng·h/mL | 0.006 | 85% | – |
| N#Cc1cc(Cl)cnc1/C(=C(\c1ccc(/C=C/C(=O)O)cc1)c1ccc2[nH]nc(F)c2c1)C1CCC1 | – | 1.1 nM | 0.4 nM | 93% | 250 ng·h/mL | – | – | – |
| N#Cc1cc(Cl)ccc1/C(=C(\c1ccc(/C=C/C(=O)O)cc1)c1ccc2[nH]nc(F)c2c1)C1CCC1 | – | 0.7 nM | 0.3 nM | 94% | 3700 ng·h/mL | 0.007 | 87% | – |
| CC/C(=C(/c1ccc(/C=C/C(=O)O)cc1)c1ccc2[nH]ncc2c1F)c1ccccc1 | – | 3 nM | 0.9 nM | 89% | 8200 ng·h/mL | – | – | – |
| N#Cc1cnccc1/C(=C(\c1ccc(/C=C/C(=O)O)cc1)c1ccc2[nH]nc(F)c2c1)C1CCC1 | – | 3.8 nM | 1.1 nM | 92% | 70 ng·h/mL | 0.1 | 22% | – |
| CS(=O)(=O)c1cc(Cl)ccc1/C(=C(\c1ccc(/C=C/C(=O)O)cc1)c1ccc2[nH]nc(F)c2c1)C1CCC1 | – | 0.3 nM | 0.3 nM | 91% | 200 ng·h/mL | 0.035 | 94% | – |
| O=C(O)/C=C/c1ccc(/C(=C(\c2ccncc2Cl)C2CCC2)c2ccc3[nH]nc(F)c3c2)cc1 | – | 0.8 nM | 0.3 nM | 90% | 1800 ng·h/mL | 0.012 | 74% | – |
| O=C(O)/C=C/c1ccc(/C(=C(\c2ccccc2)C2CCC2)c2ccc3[nH]nc(F)c3c2)cc1 | – | 1.4 nM | 0.4 nM | 90% | 14600 ng·h/mL | 0.003 | 81% | – |
| CC/C(=C(/c1ccc(/C=C/C(=O)O)cc1)c1cc2cn[nH]c2cc1F)c1ccccc1 | 96% | 47 nM | 64 nM | – | – | – | – | – |
| CS(=O)(=O)c1ccc(/C(=C(\c2ccc(/C=C/C(=O)O)cc2)c2ccc3[nH]nc(F)c3c2)C2CCC2)c(Cl)c1 | – | 2.3 nM | 0.9 nM | 91% | 140 ng·h/mL | – | 29% | – |
| CC/C(=C(/c1ccc(/C=C/C(=O)O)cc1)c1ccc2[nH]nc(C)c2c1)c1ccccc1 | 86% | > 1000 nM | 353 nM | – | – | – | – | – |
| O=C(O)/C=C/c1ccc(/C(=C(\c2ncc(Cl)cc2Cl)C2CCC2)c2ccc3[nH]nc(F)c3c2)cc1 | – | 3.5 nM | 0.8 nM | 91% | 15600 ng·h/mL | 0.011 | 80% | – |
| O=C(O)/C=C/c1ccc(/C(=C(\c2ncccc2C(F)(F)F)C2CCC2)c2ccc3[nH]nc(F)c3c2)cc1 | – | 1.1 nM | 0.3 nM | 89% | 690 ng·h/mL | 0.048 | – | – |
| O=C(O)/C=C/c1ccc(/C(=C(\c2ncc(C(F)(F)F)cc2Cl)C2CCC2)c2ccc3[nH]nc(F)c3c2)cc1 | – | 4.4 nM | 1.3 nM | 94% | 24300 ng·h/mL | 0.014 | 77% | Active |
| Cc1cccnc1/C(=C(\c1ccc(/C=C/C(=O)O)cc1)c1ccc2[nH]nc(F)c2c1)C1CCC1 | – | 4.2 nM | 0.8 nM | 88% | 190 ng·h/mL | – | – | – |
| CC/C(=C(/c1ccc(/C=C/C(=O)O)cc1)c1cnc2[nH]ncc2c1)c1ccccc1 | 93% | 302 nM | 116 nM | – | – | – | – | – |

| SMILES | Emax (MCF7 [1]) | IC50 (MCF7 [2]) | EC50 (MCF7 [3]) | Emax (MCF7 [4]) | AUC [5] | fraction unbound [6] | inhibition (INH) (Rattus norvegicus) | Activity (MCF7 [7]) |
| --- | --- | --- | --- | --- | --- | --- | --- | --- |
| CC/C(=C(/c1ccc(/C=C/C(=O)O)cc1)c1ccc2[nH]ncc2c1C#N)c1ccccc1 | – | 1.5 nM | 0.5 nM | 91% | 500 ng·h/mL | – | – | – |
| N#Cc1cc(F)ccc1/C(=C(\c1ccc(/C=C/C(=O)O)cc1)c1ccc2[nH]nc(F)c2c1)C1CCC1 | – | 1.2 nM | 0.3 nM | 92% | 760 ng·h/mL | 0.021 | 57% | – |
| CC/C(=C(/c1ccc(/C=C/C(=O)O)cc1)c1cc2cn[nH]c2cn1)c1ccccc1 | 88% | 442 nM | 384 nM | – | – | – | – | – |
| CC/C(=C(/c1ccc(/C=C/C(=O)O)cc1)c1ccc2[nH]ncc2c1)c1ccc(F)cc1Cl [BRILANESTRANT] | – | 2.5 nM | – | 90% | – | 0.011 | 79% | – |
| COc1ccc(/C(=C(\c2ccc(/C=C/C(=O)O)cc2)c2ccc3[nH]nc(F)c3c2)C2CCC2)c(C#N)c1 | – | 0.5 nM | 0.3 nM | 94% | 2000 ng·h/mL | 0.004 | 82% | – |
| CC/C(=C(/c1ccc(/C=C/C(=O)O)cc1)c1ccc2[nH]nc(F)c2c1)c1ccccc1 | – | 5 nM | 1.1 nM | 90% | 14000 ng·h/mL | – | – | – |
| O=C(O)/C=C/c1ccc(/C(=C(\c2ncccc2Cl)C2CCC2)c2ccc3[nH]nc(F)c3c2)cc1 | – | 1.2 nM | 0.3 nM | 90% | 900 ng·h/mL | 0.032 | 83% | – |
| COc1ccc(/C(=C(\c2ccc(/C=C/C(=O)O)cc2)c2ccc3[nH]nc(F)c3c2)C2CCC2)c(Cl)c1 | – | 2.4 nM | 0.8 nM | 93% | 20500 ng·h/mL | 0.001 | 90% | – |
| CC/C(=C(/c1ccc(/C=C/C(=O)O)cc1)c1cc2cn[nH]c2cc1Cl)c1ccccc1 | 87% | 137 nM | 54 nM | – | – | – | – | – |
| O=C(O)/C=C/c1ccc(/C(=C(\c2ccccc2Cl)C2CCC2)c2ccc3[nH]nc(F)c3c2)cc1 | – | 1.1 nM | 0.4 nM | 90% | 11100 ng·h/mL | 0.003 | 82% | – |
| N#Cc1cc(C(F)(F)F)ccc1/C(=C(\c1ccc(/C=C/C(=O)O)cc1)c1ccc2[nH]nc(F)c2c1)C1CCC1 | – | 1.2 nM | 0.4 nM | 94% | 14600 ng·h/mL | 0.014 | 75% | Active |
| CC/C(=C(/c1ccc(/C=C/C(=O)O)cc1)c1ccc2[nH]ncc2c1Cl)c1ccccc1 | – | 1.6 nM | 0.8 nM | 93% | 18000 ng·h/mL | – | – | – |
| CC/C(=C(/c1ccc(/C=C/C(=O)O)cc1)c1ccc2[nH]ncc2c1OC)c1ccccc1 | – | 55 nM | 19 nM | 91% | – | – | – | – |
| COCC/C(=C(/c1ccc(/C=C/C(=O)O)cc1)c1ccc2[nH]ncc2c1)c1ccccc1 | – | 63 nM | 47 nM | 92% | – | – | – | – |
| CC/C(=C(/c1ccc(/C=C/C(=O)O)cc1)c1ccc2[nH]nc(Cl)c2c1)c1ccccc1 | 89% | 284 nM | 102 nM | – | – | – | – | – |
| O=C(O)/C=C/c1ccc(/C(=C(\c2ccccc2)C2CCCC2)c2ccc3[nH]ncc3c2)cc1 | – | 10 nM | 9.3 nM | 90% | – | – | – | – |
